32 compounds from US20040156869A1, “2-substituted quinazolin-4-ylamine analogues” (Neurogen Corporation, priority 2002, published 2004) can be followed below.

Each structure is given as a SMILES string.

By Ki is commonly meant the dissociation constant of the complex between target and ligand, obtained from inhibition or displacement. Lower therefore signals tighter binding.

Chain of human capsaicin receptor (VR1) (Q8NER1 whole entry): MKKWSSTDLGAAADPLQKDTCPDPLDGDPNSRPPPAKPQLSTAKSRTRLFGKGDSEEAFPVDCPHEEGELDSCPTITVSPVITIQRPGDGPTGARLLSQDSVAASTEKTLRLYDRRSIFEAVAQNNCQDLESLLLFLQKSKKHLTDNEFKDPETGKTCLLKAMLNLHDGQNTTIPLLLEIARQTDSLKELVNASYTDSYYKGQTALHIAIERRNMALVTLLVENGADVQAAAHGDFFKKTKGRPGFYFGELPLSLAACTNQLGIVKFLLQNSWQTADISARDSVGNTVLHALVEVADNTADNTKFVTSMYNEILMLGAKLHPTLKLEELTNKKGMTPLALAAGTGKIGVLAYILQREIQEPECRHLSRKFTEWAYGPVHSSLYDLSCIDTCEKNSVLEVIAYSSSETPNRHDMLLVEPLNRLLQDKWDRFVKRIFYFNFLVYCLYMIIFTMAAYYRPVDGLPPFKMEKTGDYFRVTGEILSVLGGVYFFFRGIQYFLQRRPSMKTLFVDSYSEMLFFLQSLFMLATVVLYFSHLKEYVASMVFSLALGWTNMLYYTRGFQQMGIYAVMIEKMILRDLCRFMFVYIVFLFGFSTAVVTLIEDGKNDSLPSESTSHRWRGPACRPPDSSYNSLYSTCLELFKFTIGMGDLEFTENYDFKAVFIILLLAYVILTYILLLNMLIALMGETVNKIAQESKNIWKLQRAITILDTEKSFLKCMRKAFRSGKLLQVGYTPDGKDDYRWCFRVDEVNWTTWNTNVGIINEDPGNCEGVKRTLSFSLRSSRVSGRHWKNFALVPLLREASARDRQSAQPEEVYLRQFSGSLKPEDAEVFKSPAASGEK

The assay has as its target human capsaicin receptor (VR1) (Homo sapiens, UniProt Q8NER1). The assay is described as follows: Capsaicin receptor binding assay ([3H]RTX competition, VR1-transfected HEK293 membranes).
Experimental: Human embryonic kidney (HEK293) cells were transfected with the pBK-CMV expression construct encoding the full length human capsaicin receptor using standard methods. The transfected cells were selected for two weeks in media containing G418 (400 μg/ml) to obtain a pool of stably transfected cells. Independent clones were isolated from this pool by limiting dilution to obtain clonal stable cell lines for use in subsequent experiments.
For radioligand binding experiments, cells were seeded in T175 cell culture flasks in media without antibiotics and grown to approximately 90% confluency. The flasks were then washed with PBS and harvested in PBS containing 5 mM EDTA. The cells were pelleted by gentle centrifugation and stored at −80° C. until assayed.
Previously frozen cells were disrupted with the aid of a tissue homogenizer in ice-cold HEPES homogenization buffer (5 mM KCl 5, 5.8 mM NaCl, 0.75 mM CaCl2, 2 mM MgCl2, 320 mM sucrose, and 10 mM HEPES pH 7.4). Tissue homogenates were first centrifuged for 10 minutes at 1000×g (4° C.) to remove the nuclear fraction and debris, and then the supernatant from the first centrifugation is further centrifuged for 30 minutes at 35,000×g (4° C.) to obtain a partially purified membrane fraction. Membranes were resuspended in the HEPES homogenization buffer prior to the assay. An aliquot of this membrane homogenate was used to determine protein concentration via the Bradford method (BIO-RAD Protein Assay Kit, #500-0001, BIO-RAD, Hercules, Calif.).
Binding studies with [^3H] […] In this protocol, non-specific RTX binding is reduced by adding bovine alpha1 acid glycoprotein (100 μg per tube) after the binding reaction has been terminated.
Binding assay mixtures are set up on ice and contain [^3H]RTX (specific activity 2200 mCi/ml), 2 μl non-radioactive test compound, 0.25 mg/ml bovine serum albumin (Cohn fraction V), and 5×10^4-1×10^5 VR1-transfected cells. The final volume is adjusted to 500 μl (for competition binding assays) or 1,000 μl (for saturation binding assays) with the ice-cold HEPES homogenization buffer solution (pH 7.4) described above. Non-specific binding is defined as that occurring in the presence of 1 μM non-radioactive RTX (Alexis Corp.; San Diego, Calif.). For saturation binding, [^3H]RTX is added in the concentration range of 7-1,000 pM, using 1 to 2 dilutions. Typically 11 concentration points are collected per saturation binding curve.
Competition binding assays are performed in the presence of 60 pM [^3 H]RTX and various concentrations of test compound. The binding reactions are initiated by transferring the assay mixtures into a 37° C. water bath and are terminated following a 60 minute incubation period by cooling the tubes on ice. Membrane-bound RTX is separated from free, as well as any alpha,-acid glycoprotein-bound RTX, by filtration onto WALLAC glass fiber filters (PERKIN-ELMER, Gaithersburg, Md.) which were pre-soaked with 1.0% PEI (polyethyleneimine) for 2 hours prior to use.
`CCN(CC)CCCOCc1nc(Nc2ccc(C(C)(C)C)cc2)c2ccc(-c3ncccc3C(F)(F)F)cc2n1` [Compound 117, (4-tert-Butyl-phenyl)-[2-(3-diethylamino-propoxymethyl)-7-(3-trifluoromethyl-pyridin-2-yl)-quinazolin-4-yl]-amine] yielded an inhibitory constant (Ki) below 1000 nM.

Consider `COCc1nc(Nc2ccc(C3CC3)cc2)c2ccc(-c3ncccc3C(F)(F)F)cc2n1` [Compound 118, (4-Cyclopropyl-phenyl)-[2-methoxymethyl-7-(3-trifluoromethyl-pyridin-2-yl)-quinazolin-4-yl]-amine], for which the Ki was below 1000 nM.

On to `Cc1cccnc1-c1ccc2c(Nc3ccc(C(F)(F)F)cc3)nc(CO)nc2n1` [Compound 119, [7-(3-Methyl-pyridin-2-yl)-4-(4-trifluoromethyl-phenylamino)-pyrido[2,3-d]pyrimidin-2-yl]-methanol], for which the Ki is below 1000 nM.

`COCc1nc(Nc2ccc(S(=O)(=O)N3CCOCC3)cc2)c2ncc(-c3ncccc3Cl)cc2n1` [Compound 120, [7-(3-Chloro-pyridin-2-yl)-2-methoxymethyl-pyrido[3,2-d]pyrimidin-4-yl]-[4-(morpholine-4-sulfonyl)-phenyl]-amine] registered a Ki below 1000 nM.

The compound `OCc1nc(Nc2ccc(C(F)(F)F)cc2)c2ncc(-c3ncccc3C(F)(F)F)cc2n1` [Compound 121, [4-(4-Trifluoromethyl-phenylamino)-7-(3-trifluoromethyl-pyridin-2-yl)-pyrido[3,2-d]pyrimidin-2-yl]-methanol] yielded an inhibition constant (Ki) below 1000 nM.

Consider `OCc1nc(Nc2ccc(C(F)(F)F)cc2)c2ncc(-c3ncccc3Cl)cc2n1` [Compound 122, [7-(3-Chloro-pyridin-2-yl)-4-(4-trifluoromethyl-phenylamino)-pyrido[3,2-d]pyrimidin-2-yl]-methanol], for which the Ki is below 1000 nM.

`CN(C)CC(C)(C)COCc1nc(Nc2ccc(C(F)(F)F)cc2)c2ccc(-c3ncccc3C(F)(F)F)cc2n1` [Compound 123, [2-(3-Dimethylamino-2,2-dimethyl-propoxymethyl)-7-(3-trifluoromethyl-pyridin-2-yl)-quinazolin-4-yl]-(4-trifluoromethyl-phenyl)-amine] showed a Ki below 1000 nM.

In the case of `CC(C)(C)c1ccc(Nc2nc(COCCCN3CCOCC3)nc3cc(-c4ncccc4C(F)(F)F)ccc23)cc1` [Compound 124, (4-tert-Butyl-phenyl)-[2-(3-morpholin-4-yl-propoxymethyl)-7-(3-trifluoromethyl-pyridin-2-yl)-quinazolin-4-yl]-amine], the Ki is below 1000 nM.

For `CC(C)(C)c1ccc(Nc2nc(COCCCCN3CCOCC3)nc3cc(-c4ncccc4C(F)(F)F)ccc23)cc1` [Compound 125, (4-tert-Butyl-phenyl)-[2-(4-morpholin-4-yl-butoxymethyl)-7-(3-trifluoromethyl-pyridin-2-yl)-quinazolin-4-yl]-amine], the Ki is below 1000 nM.

With `COCc1nc(Nc2ccc(S(=O)(=O)N3CCOCC3)cc2)c2ccc(-c3ncccc3C(F)(F)F)cc2n1` [Compound 126, [2-Methoxymethyl-7-(3-trifluoromethyl-pyridin-2-yl)-quinazolin-4-yl]-[4-(morpholine-4-sulfonyl)-phenyl]-amine], the Ki is below 1000 nM.

Compound `CCOCc1nc(Nc2ccc(S(=O)(=O)N3CCOCC3)cc2)c2ccc(-c3ncccc3C(F)(F)F)cc2n1` [Compound 127, [2-Ethoxymethyl-7-(3-trifluoromethyl-pyridin-2-yl)-quinazolin-4-yl]-[4-(morpholine-4-sulfonyl)-phenyl]-amine] came in with an inhibitory constant (Ki) below 1000 nM.

With `CC(C)OCc1nc(Nc2ccc(S(=O)(=O)N3CCOCC3)cc2)c2ccc(-c3ncccc3C(F)(F)F)cc2n1` [Compound 128, [2-Isopropoxymethyl-7-(3-trifluoromethyl-pyridin-2-yl)-quinazolin-4-yl]-[4-(morpholine-4-sulfonyl)-phenyl]-amine], the Ki was below 1000 nM.

As to `Cc1cccnc1-c1ccc2c(Nc3ccc(C(C)(C)C)cc3)nc(COCC(C)C)nc2n1` [Compound 129, (4-tert-Butyl-phenyl)-[2-isobutoxymethyl-7-(3-methyl-pyridin-2-yl)-pyrido[2,3-d]pyrimidin-4-yl]-amine], the Ki was below 1000 nM.

In turn, `Cc1cccnc1-c1ccc2c(Nc3ccc(C(C)C)cc3)nc(COCC(C)C)nc2n1` [Compound 130, [2-Isobutoxymethyl-7-(3-methyl-pyridin-2-yl)-pyrido[2,3-d]pyrimidin-4-yl]-(4-isopropyl-phenyl)-amine] came in with a Ki below 1000 nM.

The compound `Cc1cccnc1-c1ccc2c(Nc3ccc(C(F)(F)F)cc3)nc(COCC(C)C)nc2n1` [Compound 131, [2-Isobutoxymethyl-7-(3-methyl-pyridin-2-yl)-pyrido[2,3-d]pyrimidin-4-yl]-(4-trifluoromethyl-phenyl)-amine] came in with a Ki below 1000 nM.

As to `CCOCc1nc(Nc2ccc(C(C)(C)C)cc2)c2ccc(-c3ncccc3Cl)nc2n1` [Compound 132, (4-tert-Butyl-phenyl)-[7-(3-chloro-pyridin-2-yl)-2-ethoxymethyl-pyrido[2,3-d]pyrimidin-4-yl]-amine], the Ki was below 1000 nM.

In turn, `CCOCc1nc(Nc2ccc(C(C)C)cc2)c2ccc(-c3ncccc3Cl)nc2n1` [Compound 133, [7-(3-Chloro-pyridin-2-yl)-2-ethoxymethyl-pyrido[2,3-d]pyrimidin-4-yl]-(4-isopropyl-phenyl)-amine] registered a Ki below 1000 nM.

Turning to `CCOCc1nc(Nc2ccc(C(F)(F)F)cc2)c2ccc(-c3ncccc3Cl)nc2n1` [Compound 134, [7-(3-Chloro-pyridin-2-yl)-2-ethoxymethyl-pyrido[2,3-d]pyrimidin-4-yl]-(4-trifluoromethyl-phenyl)-amine], the Ki was below 1000 nM.

Take `CCOCc1nc(Nc2ccc(S(=O)(=O)C(F)(F)F)cc2)c2ccc(-c3ncccc3Cl)nc2n1` [Compound 135, [7-(3-Chloro-pyridin-2-yl)-2-ethoxymethyl-pyrido[2,3-d]pyrimidin-4-yl]-(4-trifluoromethanesulfonyl-phenyl)-amine]: the Ki was below 1000 nM.

The compound `CCOCc1nc(Nc2ccc(C(C)C(F)(F)F)cc2)c2ccc(-c3ncccc3Cl)nc2n1` (centres unmarked) [Compound 136, [7-(3-Chloro-pyridin-2-yl)-2-ethoxymethyl-pyrido[2,3-d]pyrimidin-4-yl]-[4-(2,2,2-trifluoro-1-methyl-ethyl)-phenyl]-amine] came in with a Ki below 1000 nM.

Compound `CCOCc1nc(Nc2ccc(C3CCCC3)cc2)c2ccc(-c3ncccc3Cl)nc2n1` [Compound 137, [7-(3-Chloro-pyridin-2-yl)-2-ethoxymethyl-pyrido[2,3-d]pyrimidin-4-yl]-(4-cyclopentyl-phenyl)-amine] yielded a Ki below 1000 nM.

For the compound `CCOCc1nc(Nc2ccc(C(F)(F)F)cc2)c2ccc(-c3ncccc3C)nc2n1` [Compound 138, [2-Ethoxymethyl-7-(3-methyl-pyridin-2-yl)-pyrido[2,3-d]pyrimidin-4-yl]-(4-trifluoromethyl-phenyl)-amine], the Ki is below 1000 nM.

`CCOCc1nc(Nc2ccc(C(C)C)cc2)c2ccc(-c3ncccc3C)nc2n1` [Compound 139, [2-Ethoxymethyl-7-(3-methyl-pyridin-2-yl)-pyrido[2,3-d]pyrimidin-4-yl]-(4-isopropyl-phenyl)-amine]: the Ki is below 1000 nM.

`CCOCc1nc(Nc2ccc(S(=O)(=O)C(F)(F)F)cc2)c2ccc(-c3ncccc3C)nc2n1` [Compound 140, [2-Ethoxymethyl-7-(3-methyl-pyridin-2-yl)-pyrido[2,3-d]pyrimidin-4-yl]-(4-trifluoromethanesulfonyl-phenyl)-amine] came in with a Ki below 1000 nM.

Turning to `O=S(=O)(c1ccc(Nc2nc(COC3CCOCC3)nc3cc(-c4ncccc4C(F)(F)F)ccc23)cc1)N1CCOCC1` [Compound 141, [4-(Morpholine-4-sulfonyl)-phenyl]-[2-(tetrahydro-pyran-4-yloxymethyl)-7-(3-trifluoromethyl-pyridin-2-yl)-quinazolin-4-yl]-amine], the Ki was below 1000 nM.

`O=S(=O)(c1ccc(Nc2nc(COCC3CC3)nc3cc(-c4ncccc4C(F)(F)F)ccc23)cc1)N1CCOCC1` [Compound 142, [2-Cyclopropylmethoxymethyl-7-(3-trifluoromethyl-pyridin-2-yl)-quinazolin-4-yl]-[4-(morpholine-4-sulfonyl)-phenyl]-amine] displayed a Ki below 1000 nM.

Compound `O=S(=O)(c1ccc(Nc2nc(COC3CCCC3)nc3cc(-c4ncccc4C(F)(F)F)ccc23)cc1)N1CCOCC1` [Compound 143, [2-Cyclopentyloxymethyl-7-(3-trifluoromethyl-pyridin-2-yl)-quinazolin-4-yl]-[4-(morpholine-4-sulfonyl)-phenyl]-amine] gave a Ki below 1000 nM.

Consider `CN(C)CC(O)COCc1nc(Nc2ccc(C(F)(F)F)cc2)c2ccc(-c3ncccc3C(F)(F)F)cc2n1` (centres unmarked) [Compound 144, 1-Dimethylamino-3-[4-(4-trifluoromethyl-phenylamino)-7-(3-trifluoromethyl-pyridin-2-yl)-quinazolin-2-ylmethoxy]-propan-2-ol], for which the Ki was below 1000 nM.

`CCN(CC)CC[C@@H](C)OCc1nc(Nc2ccc(C(C)(C)C)cc2)c2ccc(-c3ncccc3C(F)(F)F)cc2n1` [Compound 145, (4-tert-Butyl-phenyl)-[2-(3-diethylamino-1-methyl-propoxymethyl)-7-(3-trifluoromethyl-pyridin-2-yl)-quinazolin-4-yl]-amine] yielded a Ki below 1000 nM.

As for `CCOCc1nc(Nc2ccc(C(F)(F)F)nc2)c2ccc(-c3ncccc3Cl)nc2n1` [Compound 146, [7-(3-Chloro-pyridin-2-yl)-2-ethoxymethyl-pyrido[2,3-d]pyrimidin-4-yl]-(6-trifluoromethyl-pyridin-3-yl)-amine], the Ki is below 1000 nM.

As to `COCc1nc(Nc2ccc(C(F)(F)F)nc2)c2ccc(-c3ncccc3C(F)(F)F)nc2n1` [Compound 147, [2-Methoxymethyl-7-(3-trifluoromethyl-pyridin-2-yl)-pyrido[2,3-d]pyrimidin-4-yl]-(6-trifluoromethyl-pyridin-3-yl)-amine], the inhibitory constant (Ki) is below 1000 nM.

As for `COCc1nc(Nc2ccc(C(F)(F)F)nc2)c2ccc(-c3ncccc3C)nc2n1` [Compound 148, [2-Methoxymethyl-7-(3-methyl-pyridin-2-yl)-pyrido[2,3-d]pyrimidin-4-yl]-(6-trifluoromethyl-pyridin-3-yl)-amine], the Ki is below 1000 nM.
